The values below come from patent US20160194683A1, “Gas Biosensors” (priority 2013, published 2016).

Where two headings read alike, the source gives them in different places.

Series [1] addresses XylR of Pseudomonas putida (Pseudomonas putida, UniProt P06519).
For series [2], the system named is TbuT of Ralstonia pickettii. Conditions: host E. coli; tbuAlp-luxAB; cited from earlier work.
The target of another series is T1, TodST of P. putida (Pseudomonas putida, UniProt A5W4E3).
T1 construct: host or cells: P. putida str; F1
T1 sequence (A5W4E3 whole entry): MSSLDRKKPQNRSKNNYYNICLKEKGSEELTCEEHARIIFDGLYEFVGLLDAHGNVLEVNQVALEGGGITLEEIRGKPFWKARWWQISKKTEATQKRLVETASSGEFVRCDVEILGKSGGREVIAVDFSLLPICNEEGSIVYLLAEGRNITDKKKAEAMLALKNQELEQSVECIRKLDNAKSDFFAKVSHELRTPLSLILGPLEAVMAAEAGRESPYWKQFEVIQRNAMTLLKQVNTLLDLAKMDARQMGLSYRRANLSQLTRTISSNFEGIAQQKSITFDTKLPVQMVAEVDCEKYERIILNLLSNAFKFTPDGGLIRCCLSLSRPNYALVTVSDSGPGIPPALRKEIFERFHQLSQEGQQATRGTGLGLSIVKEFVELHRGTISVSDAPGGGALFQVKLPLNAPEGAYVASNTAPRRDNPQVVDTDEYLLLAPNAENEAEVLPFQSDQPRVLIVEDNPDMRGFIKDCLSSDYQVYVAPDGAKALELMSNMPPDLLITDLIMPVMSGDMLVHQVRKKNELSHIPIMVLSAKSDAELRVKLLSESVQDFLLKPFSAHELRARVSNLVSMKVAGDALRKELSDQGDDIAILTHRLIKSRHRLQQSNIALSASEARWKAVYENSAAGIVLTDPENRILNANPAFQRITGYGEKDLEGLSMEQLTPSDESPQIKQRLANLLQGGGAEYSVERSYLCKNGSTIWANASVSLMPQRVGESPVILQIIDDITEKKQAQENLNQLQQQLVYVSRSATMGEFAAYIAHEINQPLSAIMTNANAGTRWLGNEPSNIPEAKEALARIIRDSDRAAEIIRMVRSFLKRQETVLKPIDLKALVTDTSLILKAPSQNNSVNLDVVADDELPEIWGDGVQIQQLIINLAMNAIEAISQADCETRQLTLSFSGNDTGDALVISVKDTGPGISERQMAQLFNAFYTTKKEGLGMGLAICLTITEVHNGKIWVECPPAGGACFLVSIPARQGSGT
Conditions: host P. putida str. F1; todXp-luxCDABE; cited from earlier work.

Another series deals with E. coli MG1655. Kind of series: Growth of E. coli MG1655 MHT integration strains in LB plus 200 mM KBr. It counts as cell-based. The conditions noted are these: headspace gas collected at 5 hrs. From the text:
Three strains carrying an integrated Batis maritima MHT gene (BmMHT) were created by coupling the BmMHT gene to a constitutive promoter (P14) and three ribosomal binding sites (RBS) with different strengths (BCD2, BCD8, BCD14) in the integration vector pOSIP. Each was integrated into the phage 186 attachment site within the genome of E. coli MG1655 using the site specific recombinase from phage 186. Strains having the desired chromosomal insertions were verified by PCR.
Cells with a genomic copy of the MHT construct under control of the three different RBS were then tested for MHT activity by growing the cells in LB plus 200 mM KBr. Headspace gas was collected at 5 hrs, and CH3Br measured by GC-MS.
The CH3Br gas was readily detectable in the headspace, whereas the uninduced vector control cells produced no gas at all.

Series [3] has as its system FruR of Erwinia herbicola. Conditions: cited from earlier work.
For another series, the target named is AraC of E. coli (Escherichia coli, UniProt P0A9E0). The conditions noted are these: cited from earlier work.
Sequence of AraC of E. coli (P0A9E0 whole entry): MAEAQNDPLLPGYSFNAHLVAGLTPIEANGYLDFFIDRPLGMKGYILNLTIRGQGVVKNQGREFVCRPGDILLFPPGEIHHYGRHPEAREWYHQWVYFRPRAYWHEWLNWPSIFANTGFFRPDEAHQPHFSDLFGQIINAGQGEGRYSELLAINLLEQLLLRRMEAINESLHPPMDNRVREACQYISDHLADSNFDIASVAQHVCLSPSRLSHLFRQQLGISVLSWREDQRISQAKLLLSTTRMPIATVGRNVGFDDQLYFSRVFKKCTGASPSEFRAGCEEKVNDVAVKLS
Another series concerns the target T2, NahR of P. putida (Pseudomonas putida, UniProt P10183).
T2 construct: host or cells: P. putida
T2 sequence (P10183 1-300): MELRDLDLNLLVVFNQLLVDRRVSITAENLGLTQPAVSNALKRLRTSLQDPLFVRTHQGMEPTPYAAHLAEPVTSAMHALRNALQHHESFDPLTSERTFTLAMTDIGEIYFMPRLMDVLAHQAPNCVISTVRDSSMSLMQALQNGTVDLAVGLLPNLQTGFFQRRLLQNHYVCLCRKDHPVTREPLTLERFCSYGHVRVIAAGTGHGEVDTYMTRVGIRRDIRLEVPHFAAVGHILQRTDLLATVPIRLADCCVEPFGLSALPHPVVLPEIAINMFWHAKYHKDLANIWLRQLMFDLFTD
Conditions: host P. putida; nahGp-luxAB; cited from earlier work.

In series [4] the test system is PhnR of Burkholderia sartisoli. Conditions: host B. sartisoli; phnSp-luxAB; cited from earlier work.
The test system of another series is DmpR of P. putida. Conditions: host P. putida; Po-luxAB; cited from earlier work.
Series [5] deals with SOS response proteins of B. subtilis. The conditions noted are these: host B. subtilis; yorBp-lucFF; cited from earlier work.
The test system of a further series is MphR of E. coli. Conditions: host E. coli; mphAp-lacZ; cited from earlier work.
The subject of series [6] is SpoIIID and σ^E of B. subtilis. Conditions: host B. subtilis; yheI-lucFF; cited from earlier work.
In the next series the test system is DnaK and σ32 of E. coli. Conditions: host E. coli; dnaKp-luxCDABE; increase in intracellular misfolded proteins; cited from earlier work.
Series [7] has as its system Crp-cAMP transcriptional dual regulator of E. coli. Conditions: host E. coli; grpEP-luxCDABE; increase in intracellular misfolded proteins; cited from earlier work.
The subject of the next series is ArsR of E. coli. The conditions noted are these: host E. coli; arsRp-luxAB; cited from earlier work.
Series [8] relates to RecA-LexA of E. coli. The conditions noted are these: host E. coli; sfiA-lacZ; cited from earlier work.
Series [9] deals with RecA-LexA of E. coli. Conditions: host E. coli; reAp-luxCDABE; cited from earlier work.
The mark [10] stands for this setting: host Escherichia coli; Pu-lucFF; cited from earlier work.

Sequence of XylR of Pseudomonas putida (P06519 whole entry): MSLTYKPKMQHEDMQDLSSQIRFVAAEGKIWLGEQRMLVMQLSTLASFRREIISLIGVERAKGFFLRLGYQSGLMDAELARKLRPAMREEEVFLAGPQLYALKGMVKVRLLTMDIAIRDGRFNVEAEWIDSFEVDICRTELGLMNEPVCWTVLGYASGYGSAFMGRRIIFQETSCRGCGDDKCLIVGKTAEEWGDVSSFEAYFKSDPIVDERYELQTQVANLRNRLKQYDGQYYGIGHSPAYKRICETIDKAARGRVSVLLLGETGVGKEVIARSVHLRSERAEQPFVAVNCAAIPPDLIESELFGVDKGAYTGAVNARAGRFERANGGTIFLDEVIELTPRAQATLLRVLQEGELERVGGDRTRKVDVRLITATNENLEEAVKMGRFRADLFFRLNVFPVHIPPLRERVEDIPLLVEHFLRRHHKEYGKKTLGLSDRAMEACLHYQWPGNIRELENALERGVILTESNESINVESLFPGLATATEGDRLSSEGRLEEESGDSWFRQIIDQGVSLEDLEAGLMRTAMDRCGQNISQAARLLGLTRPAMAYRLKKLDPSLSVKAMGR

Turning to `Cc1cccc(CO)c1` [3-methylbenzylalcohol], the EC50 in [1] (E. coli, firefly luciferase under XylR and Pu; means±standard deviations; read-out: K1/2 of luminescence concentration dependence; cited from earlier work) was 2.69 mM.

Turning to `c1ccccc1` [Benzene], the Detection sensitivity in [1] (setting [10]) is 40 µM; in series [2], 0.24 µM; at TodST of P. putida, 0.3 µM.

`CBr` [CH3Br]: in the series on E. coli MG1655, the “Toxicity to cells (cell growth)” value was “Neither the bromine ions, nor the CH3Br gas were toxic”.

For the molecule `O=C(CO)[C@@H](O)[C@H](O)[C@H](O)CO` [Fructose], the Detection sensitivity in series [3] is about 2 µM.

Turning to `O=C[C@H](O)[C@@H](O)[C@@H](O)CO` [L-Arabinose], the Detection sensitivity at AraC of E. coli is 0.5 µM.

For the molecule `c1ccc2ccccc2c1` [Naphthalene], the Detection sensitivity on NahR of P. putida is 10 nM; in [4], 0.17 µM.

Turning to `Oc1ccccc1` [Phenol], the Detection sensitivity in the series on DmpR of P. putida was 3 µM; at TodST of P. putida it was 0.3 µM.

With `Br` [bromine ions], the “Toxicity to cells (cell growth)” value in the series with E. coli MG1655 is reported as “Neither the bromine ions, nor the CH3Br gas were toxic”.

On to `O=C(O)c1cn(C2CC2)c2cc(N3CCNCC3)c(F)cc2c1=O` [ciprofloxacin], for which the Detection sensitivity in series [5] was 60 nM.

For the molecule `CC[C@H]1OC(=O)[C@H](C)[C@@H](O[C@H]2C[C@@](C)(OC)[C@@H](O)[C@H](C)O2)[C@H](C)[C@@H](O[C@@H]2O[C@H](C)C[C@H](N(C)C)[C@H]2O)[C@](C)(O)C[C@@H](C)C(=O)[C@H](C)[C@@H](O)[C@]1(C)O` [erythromycin], the Detection sensitivity with MphR of E. coli is about 10 µM.

`CC(=O)NC[C@H]1CN(c2ccc(N3CCOCC3)c(F)c2)C(=O)O1` [linezolid]: the Detection sensitivity in series [6] was 0.1 µM.

For `Cc1cccc(C)c1` [m-xylene], in series [1] (read-out: K1/2 of luminescence concentration dependence; E. coli, firefly luciferase under XylR and Pu; means±standard deviations; cited from earlier work), the EC50 was 0.039 ± 0.0038 mM. Moreover, the Detection sensitivity on TodST of P. putida was 0.3 µM.

Take `CO` [methanol]: the Detection sensitivity in the series on DnaK and σ32 of E. coli was 0.25M methanol,.

For the molecule `Cc1ccc(C)cc1` [p-xylene], the Detection sensitivity at TodST of P. putida was 0.3 µM.

In the case of `Oc1c(Cl)c(Cl)c(Cl)c(Cl)c1Cl` [pentachlorophenol], in [7], the Detection sensitivity is recorded as 0.14 nM.

As to `c1ccc2c(c1)ccc1ccccc12` [phenanthrene], the Detection sensitivity in series [4] was 0.17 µM.

For `O=C(O)c1ccccc1O` [salicylate], the Detection sensitivity at NahR of P. putida is 10 nM.

With `OC[C@H]1O[C@@](CO)(O[C@H]2O[C@H](CO)[C@@H](O)[C@H](O)[C@H]2O)[C@@H](O)[C@@H]1O` [sucrose], in series [3], the Detection sensitivity was about 2 µM.

In the case of `Cc1ccccc1` [toluene], the figures for the Detection sensitivity (in [1] (setting [10]); in series [2]; on TodST of P. putida) were 40 µM, 0.24 µM and 0.3 µM, respectively.

For `ClC=C(Cl)Cl` [trichloroethene], the Detection sensitivity at TodST of P. putida was 0.3 µM.

Take Arsenite: the Detection sensitivity in the series on ArsR of E. coli is 5 nM.

Regarding Xylene, the values for the Detection sensitivity in series [1] (setting [10]) and in series [2] were 40 µM and 0.24 µM, respectively.

On to antimonite, for which the Detection sensitivity in the series on ArsR of E. coli is recorded as 5 nM.

Turning to mitomycin C, the Detection sensitivity in the series with RecA-LexA of E. coli [8] is listed as 4 nM mitomycin C; in the series on RecA-LexA of E. coli [9], 0.2 nM mitomycin C.
